Patent US4774184A, “Culture and process for producing antibiotic LL-D42067alpha” (American Cyanamid Company, priority 1985, dated 1988)
In brackets after ≈: the same amount, converted by molar mass. Read-outs that look alike come from different tables or passages of the source.

Tests used:
Format in all cases: cell-based
Streptococcus sanguis = test: in vitro antimicrobial spectrum, agar plate dilution MIC; details: strain G9B (a), Mueller-Hinton agar, 18 hours, 35° C., read-out: minimal inhibitory concentration (MIC)
Method: (§1) The in vitro antimicrobial spectrum of LL-D42067α was determined by the agar plate dilution method with Mueller-Hinton agar and an inoculum of each test organism of approximately 10^4 colony forming units delivered by the Steers replicating device. The minimal inhibitory concentration (MIC) in mcg/ml was defined as the lowest concentration of LL-D42067α that inhibited visible growth after 18 hours incubation at 35° C.

Staphylococcus aureus = test: as above; details: Mueller-Hinton agar, 18 hours, 35° C.; for MIC: Staphylococcus aureus, read-out: minimal inhibitory concentration (MIC)
Method: as §1

Bacillus cereus = test: as above; details: strain LL #4, Mueller-Hinton agar, 18 hours, 35° C., read-out: minimal inhibitory concentration (MIC)
Method: as §1

Bacillus subtilis = test: as above; details: ATCC6633, strain ATCC 6633, Mueller-Hinton agar, 18 hours, 35° C., read-out: minimal inhibitory concentration (MIC)
Method: as §1

Escherichia coli = test: as above; details: 18 hours, 35° C., read-out: minimal inhibitory concentration (MIC)
Method: as §1

Streptococcus mutans = test: as above; details: 18 hours, 35° C., read-out: minimal inhibitory concentration (MIC)
Method: as §1

[1] = system: Streptococcus (enterococcus sp); test: as above; details: Mueller-Hinton agar, 18 hours, 35° C.
Method: as §1

Candida albicans = test: as above; details: strain CA 300, Mueller-Hinton agar, 18 hours, 35° C., read-out: minimal inhibitory concentration (MIC)
Method: as §1

Proteus morganii = test: as above; details: Morganella morganii; strain K-79-25; Mueller-Hinton agar, 18 hours, 35° C.; read-out: minimal inhibitory concentration (MIC)
Method: as §1

Micrococcus luteus = test: as above; details: strain PC 1001, Mueller-Hinton agar, 18 hours, 35° C., read-out: minimal inhibitory concentration (MIC)
Method: as §1

[2] = system: Acinetobacter calcoaceticus; test: as above; details: strain Stfd-79-17, Mueller-Hinton agar, 18 hours, 35° C., read-out: minimal inhibitory concentration (MIC)
Method: as §1

Klebsiella pneumoniae = test: as above; details: strain AD, Mueller-Hinton agar, 18 hours, 35° C., read-out: minimal inhibitory concentration (MIC)
Method: as §1

Streptococcus faecalis = test: as above; details: Enterococcus faecalis, ATCC29212; strain ATCC 29212; Mueller-Hinton agar, 18 hours, 35° C.; read-out: minimal inhibitory concentration (MIC)
Method: as §1

[3] = system: Staphylococcus epidermidis; test: as above; details: 18 hours, 35° C., read-out: minimal inhibitory concentration (MIC)
Method: as §1

Saccharomyces cerevisiae = test: as above; details: strain Y 15, Mueller-Hinton agar, 18 hours, 35° C., read-out: minimal inhibitory concentration (MIC)
Method: as §1

gram-positive bacteria = test: in vitro antimicrobial spectrum, summary in words; details: summary of Table VI
Method: as §1

yeasts = test: in vitro antimicrobial spectrum, summary in words; details: summary of Table VI
Method: as §1

Structure (SMILES): COc1c2c(c(O)c3c(=O)c4c(oc13)C(O)CCC4O)-c1c3c(c4cc(C)n(C)c(=O)c4c1O)OCOC3C2 (stereo not drawn) [LL-D42067α]
- MIC (Streptococcus sanguis): ≤ 0.06 µg/mL
- MIC (Staphylococcus aureus; ATCC25923, strain ATCC 25923): ≤ 0.06 µg/mL
- MIC (Staphylococcus aureus; strain Smith): ≤ 0.06 µg/mL
- minimal inhibitory concentration (MIC) (Staphylococcus aureus; strain LL #14): ≤ 0.06 µg/mL
- minimal inhibitory concentration (MIC) (Staphylococcus aureus; strain LL #27): ≤ 0.06 µg/mL
- minimal inhibitory concentration (MIC) (Staphylococcus aureus; strain LL #45): ≤ 0.06 µg/mL
- MIC (Bacillus cereus): ≤ 0.06 µg/mL
- MIC (Bacillus subtilis): ≤ 0.06 µg/mL
- MIC (Escherichia coli; ATCC25922, strain ATCC 25922, Mueller-Hinton agar): 512 µg/mL (≈ 956 µM)
- MIC (Escherichia coli; strain #311, Mueller-Hinton agar): 512 µg/mL (≈ 956 µM)
- MIC (Streptococcus mutans; ATCC27352, strain ATCC 27352, Mueller-Hinton agar): ≤ 0.06 µg/mL
- MIC (Streptococcus mutans; strain BHI (b), Mueller-Hinton agar): ≤ 0.06 µg/mL
- MIC ([1]; Streptococcus, strain OSU-75-1, read-out: minimal inhibitory concentration (MIC)): ≤ 0.06 µg/mL
- minimal inhibitory concentration (MIC) ([1]; strain SM-77-15): ≤ 0.06 µg/mL
- MIC (Candida albicans): 256 µg/mL (≈ 478 µM)
- MIC (Proteus morganii): 512 µg/mL (≈ 956 µM)
- MIC (Micrococcus luteus): ≤ 0.06 µg/mL
- MIC [2]: 512 µg/mL (≈ 956 µM)
- MIC (Klebsiella pneumoniae): 512 µg/mL (≈ 956 µM)
- MIC (Streptococcus faecalis): ≤ 0.06 µg/mL
- MIC ([3]; ATCC12228, strain ATCC 12228, Mueller-Hinton agar): ≤ 0.06 µg/mL
- MIC ([3]; strain CMC-83-56, Mueller-Hinton agar): ≤ 0.06 µg/mL
- MIC (Saccharomyces cerevisiae): 32 µg/mL (≈ 59.8 µM)
- antimicrobial activity versus gram-positive bacteria (gram-positive bacteria): active
- antimicrobial activity against yeasts (yeasts): moderately active
